The values that follow come from patent US20090111710A1, “CELLULAR SIGNALING PATHWAY BASED ASSAYS, REAGENTS AND KITS” (Cell NetwoRX LLC, priority 2005, published 2009).

For assay [1], the system named is PKC □. The following applies: read-out: Reported Potency IC50; cited from earlier work.
The test system of assay [2] is relevant target and pathway. The following applies: cited from earlier work.
The test system of assay [3] is PKC subtypes □, □ and □. The conditions noted are these: >uM; cited from earlier work.
Assay [4] deals with MEK ½ (Homo sapiens, UniProt Q02750). The following applies: first value, read-out: Reported Potency IC50; cited from earlier work.
MEK ½ (Homo sapiens, UniProt Q02750), sequence (Q02750 whole entry): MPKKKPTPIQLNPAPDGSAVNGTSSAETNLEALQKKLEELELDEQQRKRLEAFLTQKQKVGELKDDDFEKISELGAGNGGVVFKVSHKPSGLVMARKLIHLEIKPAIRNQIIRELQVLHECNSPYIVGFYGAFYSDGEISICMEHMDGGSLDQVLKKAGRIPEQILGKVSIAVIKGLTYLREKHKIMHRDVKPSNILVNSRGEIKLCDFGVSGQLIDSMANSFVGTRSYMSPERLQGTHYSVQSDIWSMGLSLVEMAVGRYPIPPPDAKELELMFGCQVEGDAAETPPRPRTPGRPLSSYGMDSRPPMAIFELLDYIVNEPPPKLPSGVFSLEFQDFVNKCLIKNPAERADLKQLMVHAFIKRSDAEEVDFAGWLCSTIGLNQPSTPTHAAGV
For assay [5], the target named is ERK1 (Homo sapiens, UniProt P27361). The following applies: read-out: Selectivity: ERK1 activity IC50; cited from earlier work.
ERK1, sequence (P27361 whole entry, species assumed): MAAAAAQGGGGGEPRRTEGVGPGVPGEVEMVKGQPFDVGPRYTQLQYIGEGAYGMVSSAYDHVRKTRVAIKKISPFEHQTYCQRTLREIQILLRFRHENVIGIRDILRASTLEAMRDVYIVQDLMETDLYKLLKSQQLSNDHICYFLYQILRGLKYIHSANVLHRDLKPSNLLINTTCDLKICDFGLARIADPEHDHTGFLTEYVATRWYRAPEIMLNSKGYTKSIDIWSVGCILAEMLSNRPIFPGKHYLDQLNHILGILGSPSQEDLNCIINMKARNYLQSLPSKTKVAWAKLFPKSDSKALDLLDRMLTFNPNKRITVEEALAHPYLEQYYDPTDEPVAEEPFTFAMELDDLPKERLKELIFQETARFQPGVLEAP
In assay [6] the target is T1, MKK4 (Homo sapiens, UniProt P45985).
T1 sequence (P45985 1-399): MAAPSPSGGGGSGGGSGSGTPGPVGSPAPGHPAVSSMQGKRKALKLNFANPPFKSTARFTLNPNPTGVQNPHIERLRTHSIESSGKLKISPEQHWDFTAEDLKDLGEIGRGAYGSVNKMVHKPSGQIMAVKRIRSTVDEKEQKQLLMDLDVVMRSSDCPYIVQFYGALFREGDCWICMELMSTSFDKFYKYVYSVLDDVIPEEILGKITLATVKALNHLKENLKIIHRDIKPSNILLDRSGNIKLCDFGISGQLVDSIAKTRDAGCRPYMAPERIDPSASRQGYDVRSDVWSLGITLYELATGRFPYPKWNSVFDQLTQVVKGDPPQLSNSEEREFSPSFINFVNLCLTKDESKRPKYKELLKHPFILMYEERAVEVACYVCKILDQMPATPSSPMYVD
The conditions noted are these: read-out: Selectivity: MKK4 activity IC50; cited from earlier work.

The target in assay [7] is MEK ½ (Homo sapiens, UniProt P36507). The following applies: second value, read-out: Reported Potency IC50; cited from earlier work.
MEK ½ (Homo sapiens, UniProt P36507), sequence (P36507 whole entry): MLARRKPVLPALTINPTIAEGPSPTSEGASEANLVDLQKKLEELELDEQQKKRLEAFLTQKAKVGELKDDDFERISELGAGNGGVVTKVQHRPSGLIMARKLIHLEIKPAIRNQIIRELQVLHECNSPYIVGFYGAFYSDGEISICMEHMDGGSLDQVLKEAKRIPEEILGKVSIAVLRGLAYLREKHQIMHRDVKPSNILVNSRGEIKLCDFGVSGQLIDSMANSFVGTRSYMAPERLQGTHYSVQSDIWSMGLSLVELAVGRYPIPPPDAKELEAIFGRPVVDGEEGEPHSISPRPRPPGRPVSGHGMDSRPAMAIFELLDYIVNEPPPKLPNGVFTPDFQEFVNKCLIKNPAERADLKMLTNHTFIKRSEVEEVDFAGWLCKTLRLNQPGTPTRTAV
Assay [8] deals with angiogenesis. The conditions noted are these: in vivo; cited from earlier work.
In assay [9] the test system is HUVEC. The conditions noted are these: 48 hrs, 20 nM VEGF; standard deviation of 10%.
Description: The cellular phenotypes, cell proliferation and/or cell death are measured using viable cell number determination methods. Measurement of cell proliferation and cytotoxicity using the luminescent assay ViaLight™-HS High Sensitivity Cytotoxicity and Cell Proliferation BioAssay Kit from Cambrex (East Rutherford, N.J.) is optimized for HUVECs. Linear detection of cell proliferation or cell survival is possible from as few as 100 and up to 10^6 cells. […] An alternative measurement of both ATP and ADP levels provides a ratio measurement indicating cells proliferation versus cell death.
The conditions of assay [10]: Phase III, patients with wet AMD; cited from earlier work.

The term IC50 denotes the point on the concentration scale where inhibition reaches its midpoint. `Cn1c2ccccc2c2c3c(c4c5ccccc5n(CCC#N)c4c21)CNC3=O` [Go 6976]: the IC50 in assay [1] was 2.3 nM. Moreover, the “activity against the relevant target and pathway in vivo” value (from here on “activity … in vivo”) in [2] was “shown activity”. In addition, the “Selectivity: effect on the kinase activity of PKC subtypes □, □ and □” value in assay [3] is listed as “>uM no effect”.
As to `C[S+]([O-])c1ccc(-c2nc(-c3ccncc3)c(-c3ccc(F)cc3)[nH]2)cc1` (stereo not drawn) [SB 203580], the “activity … in vivo” value in [2] is recorded as “shown activity”.
Take `N#C/C(=C(/N)Sc1ccc(N)cc1)c1ccccc1C(F)(F)F` [SL327]: the IC50 in assay [4] is 180 nM; in [5], over 10000 nM; in [6] it was over 10000 nM; in assay [7], 220 nM.
As for `Cc1cc(C)c(/C=C2\C(=O)Nc3ccccc32)[nH]1` [SU5416], the “activity … in vivo” value in assay [2] is on record as “shown activity”. In addition, the “angiogenesis in the wound-healing model” value in [8] is “block angiogenesis”.
With VEGF, in assay [9], the “signal to noise for HUVEC proliferation” value turned out to be 2 fold.

B1: Lucentis: humanized antibody fragment developed at Genentech, designed to bind and inhibit Vascular Endothelial Growth Factor A (antibody, chains of the INN, looked up, V domains shown)
VH: EVQLVESGGGLVQPGGSLRLSCAASGYDFTHYGMNWVRQAPGKGLEWVGWINTYTGEPTYAADFKRRFTFSLDTSKSTAYLQMNSLRAEDTAVYYCAKYPYYYGTSHWYFDVWGQGTLVTVSS
VL: DIQLTQSPSSLSASVGDRVTITCSASQDISNYLNWYQQKPGKAPKVLIYFTSSLHSGVPSRFSGSGSGTDFTLTISSLQPEDFATYYCQQYSTVPWTFGQGTKVEIK
modifications: Fab
For the molecule B1, the vision result in assay [10] is given as “improved vision”.
